Test results taken from PubChem BioAssay AID2060507 (Molecular Pharmacology Branch, DTP, NCI, 2025).
pIC50: −log10 of the molar value.

Tested on: 519858-162-T-J1-PDC complex spheroid viability
Test: Anticancer human tumor 519858-162-T-J1-PDC patient-derived colon adenocarcinoma cell line growth inhibition [GQUAD]
Conditions: for pIC50: curve of first compound; for viability, T/C: stronger effect = lower value
Description: DNA G-quadruplex Stabilizer Agents in Combinations in Complex Spheroids
A high-throughput screen of multi-cell type tumor spheroids was designed to identify active combinations of DNA G-quadruplex stabilizer agents and targeted small molecules. Complex spheroids include a stromal component modeled by human endothelial cells (HUVEC) and fibroblasts modeled by human mesenchymal stem cells (MSCs). The concentration ranges selected for each drug and investigational agent were based upon clinically achievable concentrations if the clinical Cmax of the agent was known.
Compounds. The drugs and investigational agents: pidnarulex (CX-5461; NSC782164), APTO-253 (NSC789042), BRACO-19 (NSC847499), peposertib (NSC802822), ceralasertib (NSC780249), elimusertib (NSC800525), camonsertib (NSC841442), AZD-1390 (NSC803789), olaparib (NSC753686), talazoparib (NSC767125), ART-558 (NSC835418), sotorasib (NSC818433), MRTX-1133 (NSC836407), SN-38 (NSC673596), topotecan (NSC609699), etoposide (NSC141540), doxorubicin (NSC123127), gemcitabine (NSC613327), 5-fluorouracil (NSC19893), paclitaxel (NSC125973), vemurafenib (NSC761431), panobinostat (NSC761190), R-306465 (JNJ-16241199; NSC773264), adavosertib (NSC754352), TP-3654 (NSC805149), carboplatin (NSC241240), KSQ-4279 (NSC840948), and staurosporine (NSC755774) were obtained from the National Cancer Institute (NCI) Developmental Therapeutics Program Chemical Repository (34). The FDA-approved anticancer drug set is available from the NCI Developmental Therapeutics Program. […] The stock solutions were prepared in dimethyl sulfoxide (DMSO, Sigma-Aldrich, St. Louis, MO, cat. D2650) at 800-fold the tested concentration and stored at -70 degrees C prior to their use. All drugs and investigational agents were tested over a range starting from a high concentration at or near the clinical Cmax and decreasing in half-log increments. If the clinical Cmax for an agent had not been determined, the highest concentration tested was 10 microM.
2.3 Cell Culture. All cells were maintained in an incubator at 37 degrees C and 5% CO2 with 95% humidity. The PDC lines were cultured according to standard operating procedures established by the NCI PDMR. All PDCs were thawed and cultured in Matrigel-coated flasks prepared with a working solution of 1X Ham's F-12 nutrient mix, without supplementation (Invitrogen, cat. 11765054), 100 U/mL penicillin-streptomycin (Invitrogen, cat. 15140122), and 2.5% Matrigel (Corning Inc., cat. 354248) for the first three passages. The 857933-349-R-J2-PDC line was cultured in 6C/Colon 1B media, which includes advanced DMEM/F-12 (Thermo Fisher Scientific, cat. 12634028), 10 mM HEPES (Thermo Fisher Scientific, cat. 15630080), 1X GlutaMAX supplement (Thermo Fisher Scientific, cat. 35050061), 0.1 mg/mL primocin (InvivoGen, cat. ant-pm-2), 10% defined fetal bovine serum, heat inactivated (HyClone Laboratories Inc., cat. SH30070.03HI), 50% L-WRN conditioned media (ATCC, cat. CRL-3276), 1.25 mM N-Acetyl-L-cysteine (Sigma-Aldrich, cat. A9165), 10 mM nicotinamide (Sigma-Aldrich, cat. N0636), 1X B-27 supplement (Thermo Fisher Scientific, cat. 17504044), 1X N-2 supplement (Thermo Fisher Scientific, cat. 17502048), 10 microM Y-27632 dihydrochloride (Tocris Bioscience, cat. 1254), and 50 ng/mL human EGF recombinant protein (Thermo Fisher Scientific, cat. PHG0311). The 485176-168-R4-J1-PDC line was cultured in Panc media, which includes all 6C/Colon 1B media components plus 100 ng/mL human FGF-10 (Thermo Fisher Scientific, cat. 100-26), 500 nM SB-431542 (Selleckchem, cat. S1067), and gastrin (Tocris, cat. 3006).
[…]

[1] = second compound 0.0316 µM, first compound 0.0316 µM
[2] = second compound 0.0316 µM, first compound 0.1 µM
[3] = second compound 0.0316 µM, first compound 0.316 µM
[4] = second compound 0.0316 µM, first compound 1 µM
[5] = second compound 0.0316 µM, first compound 3.16 µM
[6] = second compound 0.0316 µM, first compound 10 µM
[7] = second compound 0.1 µM, first compound 0.0316 µM
[8] = second compound 0.1 µM, first compound 0.1 µM
[9] = second compound 0.1 µM, first compound 0.316 µM
[10] = second compound 0.1 µM, first compound 1 µM
[11] = second compound 0.1 µM, first compound 3.16 µM
[12] = second compound 0.1 µM, first compound 10 µM
[13] = second compound 0.316 µM, first compound 0.0316 µM
[14] = second compound 0.316 µM, first compound 0.1 µM
[15] = second compound 0.316 µM, first compound 0.316 µM
[16] = second compound 0.316 µM, first compound 1 µM
[17] = second compound 0.316 µM, first compound 3.16 µM
[18] = second compound 0.316 µM, first compound 10 µM
[19] = second compound 1 µM, first compound 0.0316 µM
[20] = second compound 1 µM, first compound 0.1 µM
[21] = second compound 1 µM, first compound 0.316 µM
[22] = second compound 1 µM, first compound 1 µM
[23] = second compound 1 µM, first compound 3.16 µM
[24] = second compound 1 µM, first compound 10 µM
[25] = second compound 3.16 µM, first compound 0.0316 µM
[26] = second compound 3.16 µM, first compound 0.1 µM
[27] = second compound 3.16 µM, first compound 0.316 µM
[28] = second compound 3.16 µM, first compound 1 µM
[29] = second compound 3.16 µM, first compound 3.16 µM
[30] = second compound 3.16 µM, first compound 10 µM
[31] = second compound 10 µM, first compound 0.0316 µM
[32] = second compound 10 µM, first compound 0.1 µM
[33] = second compound 10 µM, first compound 0.316 µM
[34] = second compound 10 µM, first compound 1 µM
[35] = second compound 10 µM, first compound 3.16 µM
[36] = second compound 10 µM, first compound 10 µM
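Note: spheroids exposed to compounds for 7 days.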
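Throughout, for viability, T/C: 100% = DMSO vehicle control viability.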

Question: `CC1COCCN1c1cc(C2(O)CC3CCC(C2)O3)c2cnn(-c3ccn[nH]3)c2n1` (centres undefined) + CN(C)c1ccc(Nc2c3ccc(NC(=O)CCN4CCCC4)cc3nc3cc(NC(=O)CCN4CCCC4)ccc23)cc1 was tested. Which pIC50 (second compound 0.0316 µM) did it give?
Answer: 5.08

Question: What about the pIC50 (second compound 0.1 µM) of the same molecule?
Answer: < 5.00

Question: What about the pIC50 (second compound 0.316 µM) of the same molecule?
Answer: < 5.00

Question: And the pIC50 (second compound 1 µM)?
Answer: 5.03

Question: What about the pIC50 (second compound 3.16 µM) of the same molecule?
Answer: < 5.00

Question: And the pIC50 (second compound 10 µM)?
Answer: < 5.00

Question: What about the viability, T/C [1] of the same molecule?
Answer: 84.3%

Question: And the viability, T/C [2]?
Answer: 89%

Question: What about the viability, T/C [3] of the same molecule?
Answer: 87.3%

Question: And the viability, T/C [4]?
Answer: 90.2%

Question: What about the viability, T/C [5] of the same molecule?
Answer: 114%

Question: And the viability, T/C [6]?
Answer: 42%

Question: And the viability, T/C [7]?
Answer: 77.5%

Question: What about the viability, T/C [8] of the same molecule?
Answer: 76.9%

Question: What about the viability, T/C [9] of the same molecule?
Answer: 76.5%

Question: What about the viability, T/C [10] of the same molecule?
Answer: 73.5%

Question: And the viability, T/C [11]?
Answer: 75.2%

Question: And the viability, T/C [12]?
Answer: 71.6%

Question: What about the viability, T/C [13] of the same molecule?
Answer: 106%

Question: And the viability, T/C [14]?
Answer: 65.5%

Question: What about the viability, T/C [15] of the same molecule?
Answer: 98.2%

Question: And the viability, T/C [16]?
Answer: 105%

Question: And the viability, T/C [17]?
Answer: 113%

Question: And the viability, T/C [18]?
Answer: 57%

Question: What about the viability, T/C [19] of the same molecule?
Answer: 104%

Question: What about the viability, T/C [20] of the same molecule?
Answer: 75.6%

Question: What about the viability, T/C [21] of the same molecule?
Answer: 99.8%

Question: What about the viability, T/C [22] of the same molecule?
Answer: 79.2%

Question: What about the viability, T/C [23] of the same molecule?
Answer: 88.4%

Question: And the viability, T/C [24]?
Answer: 47.8%

Question: And the viability, T/C [25]?
Answer: 71.1%

Question: What about the viability, T/C [26] of the same molecule?
Answer: 66.8%

Question: And the viability, T/C [27]?
Answer: 98.3%

Question: And the viability, T/C [28]?
Answer: 73.2%

Question: What about the viability, T/C [29] of the same molecule?
Answer: 74.3%

Question: What about the viability, T/C [30] of the same molecule?
Answer: 65.3%

Question: What about the viability, T/C [31] of the same molecule?
Answer: 85%

Question: What about the viability, T/C [32] of the same molecule?
Answer: 81%

Question: And the viability, T/C [33]?
Answer: 59.9%

Question: And the viability, T/C [34]?
Answer: 60.7%

Question: And the viability, T/C [35]?
Answer: 76.5%

Question: What about the viability, T/C [36] of the same molecule?
Answer: 43.1%

Question: Which results are given for `CC1COCCN1c1cc(C2(S(C)(=N)=O)CC2)nc(-c2ccnc3[nH]ccc23)n1` (centres undefined) + Cc1[nH]c2ccc(F)cc2c1-c1nc2c3cccnc3c3ncccc3c2[nH]1?
Answer: pIC50 (second compound 0.0316 µM): < 5.00; pIC50 (second compound 0.1 µM): < 5.00; pIC50 (second compound 0.316 µM): < 5.00; pIC50 (second compound 1 µM): < 5.00; pIC50 (second compound 3.16 µM): < 5.00; pIC50 (second compound 10 µM): < 5.00; viability, T/C [1]: 87.1%; viability, T/C [2]: 91.3%; viability, T/C [3]: 96%; viability, T/C [4]: 113%; viability, T/C [5]: 82.8%; viability, T/C [6]: 81.3%; viability, T/C [7]: 68.2%; viability, T/C [8]: 106%; viability, T/C [9]: 75.4%; viability, T/C [10]: 73.6%; viability, T/C [11]: 91.7%; viability, T/C [12]: 79.3%; viability, T/C [13]: 121%; viability, T/C [14]: 111%; viability, T/C [15]: 104%; viability, T/C [16]: 87.8%; viability, T/C [17]: 67.3%; viability, T/C [18]: 96.2%; viability, T/C [19]: 71.8%; viability, T/C [20]: 81.6%; viability, T/C [21]: 75.8%; viability, T/C [22]: 73.7%; viability, T/C [23]: 61.4%; viability, T/C [24]: 75.3%; viability, T/C [25]: 74.8%; viability, T/C [26]: 79.5%; viability, T/C [27]: 87%; viability, T/C [28]: 55.6%; viability, T/C [29]: 73.2%; viability, T/C [30]: 54.6%; viability, T/C [31]: 65.2%; viability, T/C [32]: 74.7%; viability, T/C [33]: 55%; viability, T/C [34]: 60.2%; viability, T/C [35]: 67.8%; viability, T/C [36]: 44.1%
